# Tests used:
# Format in all cases: in vivo, Wistar rats
# [1] = test system: BDNF mRNA; assay: BDNF mRNA in rat cortex, hippocampus and spinal cord after i.p. treatment (RT-PCR, ratio to S12); details: 3 and 10 mg/kg i.p., 6 and 24 hours after treatment
# Procedure: (§1) Male adult Wistar rats (10-12 weeks) are killed by decapitation. The brains are removed, rapidly dissected with nuclease-free instruments on an ice-cold metal-plate, transferred to sterile cryotubes, and immediately shock-frozen by immersions in liquid nitrogen. Tissues are stored at −80° C. until further processing. Samples for the measurement of neurotrophin protein levels are prepared according to Lüesse et al., Exp. Brain Res. 1998: 119, 1-8. The homogenates are centrifuged at 12,500 g for 60 min, and the supernatants are used for NGF, BDNF and neurotrophin-3 (NT-3) quantification using specific ELISA assays.
# (§2) Total cellular RNA is isolated according to the TRIZOL®-protocol (Gibco BRL, Eggenstein) as described by Lüesse et al. (see above).
# (§3) Before being subjected to RT-PCR, the RNA extracts are supplemented with internal control RNA and optimized as described in detail by Heese K. et al., 1998, Neural Notes III, 21-23. Total RNA of each sample is first reverse-transcribed into cDNA which in turn is subjected to PCR amplification using primers specific for NGF and BDNF as described by Heese K et al., (see above).
# (§4) For the quantification of neurotrophin transcripts, the ratios of densitometric scores for NGF or BDNF and S12 PCR products are calculated. Data are means±SEM of three independent experiments, each done in duplicate. N=4 to 6 for each group.
# [2] = test system: NGF mRNA; assay: NGF mRNA in rat cortex, hippocampus and spinal cord after i.p. treatment (RT-PCR, ratio to S12); details: 3 and 10 mg/kg i.p., 6 and 24 hours after treatment
# Procedure: as §1, §2, §3, §4
# [3] = test system: NT-3-protein; assay: NT-3 protein in rat cortex, hippocampus and spinal cord after i.p. treatment (immunoassay); details: 4 mg/kg i.p.
# Procedure: as §1
# To measure the immunoreactive NGF into the cortex, hippocampus and spinal cord of rats, a two-site ELISA is used (Weskamnp, G. and Otten, U. 1987, J. Neurochem. 48, 1779-1786). Anti-β (2.5S, 7S) NGF and anti-β (2.5S, 7S) NGF-β-gal (clone 27/21) (Boehringer Mannheim) are applied, and the NGF content in the samples is determined by comparison with an NGF standard curve (absorbance measurement at 595 nm using an ELISA reader, Dynatech MR 700). For quantification of BDNF and NT-3 levels, specific immunoassay systems are used according to the manufacturer's (Promega) protocols but modified by Heese, K. and Otten, U., 1998, J. Neurochem. 70, 699-707. Statistical evaluation of results is performed by applying analysis of variance, and the statistical error is the SEM. […]
structure (smiles),measurement,setting,value
C[C@H](NC[C@H](O)CP(=O)(O)CC1CCCCC1)c1cccc(C(=O)O)c1 [compound A],increase of BDNF mRNA,[1],2 to 3 fold
same,increase of NGF mRNA,[2],2.0 to 2.5 fold
"NCC(CC(=O)O)c1ccc(Cl)cc1 (stereo not drawn) [compound C, β-(aminomethyl)-4-chlorobenze propanoic acid]",increase of NT-3-protein levels,[3],3 fold

# Reference: patent publication US20060148707A1, “Use of ligands to GABA beta receptors” (priority 1999, published 2006)
